We go through one molecule from patent US20230052740A1, “MODULATORS OF CIRCADIAN RHYTHMS AND USES THEREOF” (The Regents of the University of California, priority 2019, published 2023).

One assay has as its target T1, 5HT2c (Homo sapiens, UniProt P28335).
T1 construct: Tango fusion elements (printed only as 'PRESTO-Tango receptor DNAs'); expressed in transfected cells; host or cells: HTLA cells
T1 sequence (P28335 33-458): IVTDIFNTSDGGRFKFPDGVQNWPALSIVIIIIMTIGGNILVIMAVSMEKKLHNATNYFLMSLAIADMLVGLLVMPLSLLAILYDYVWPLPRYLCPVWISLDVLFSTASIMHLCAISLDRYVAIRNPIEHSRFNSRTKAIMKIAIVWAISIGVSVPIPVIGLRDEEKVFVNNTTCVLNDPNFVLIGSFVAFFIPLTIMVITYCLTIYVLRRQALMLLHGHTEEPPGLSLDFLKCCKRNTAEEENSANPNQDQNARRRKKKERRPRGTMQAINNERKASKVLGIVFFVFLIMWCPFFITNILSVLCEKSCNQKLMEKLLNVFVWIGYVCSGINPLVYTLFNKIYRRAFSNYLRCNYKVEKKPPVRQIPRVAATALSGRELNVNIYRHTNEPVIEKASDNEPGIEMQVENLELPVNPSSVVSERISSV
Nature of the assay: PRESTO-Tango GPCR-ome counter-screen, agonist mode. The assay is classed as cell-based. Conditions: arrestin recruitment Tango, in words. As to the method:
Screening of compounds in the PRESTO-Tango GPCR-ome was accomplished as previously described (Kroeze, supra). with several modifications. First, HTLA cells were plated in DMEM with 10% FBS and 10 U/mL penicillin-streptomycin. Next, the cells were transfected using an in-plate PEI method (Longo, P. A. et al., Methods Enzymol 529, 227-240, 2013). PRESTO-Tango receptor DNAs were resuspended in OptiMEM and hybridized with PEI prior to dilution and distribution to 384-well plates and subsequent addition to cells. After overnight incubation, drugs were added to cells without replacement of the medium. The remaining steps of the PRESTO-Tango protocol were followed as previously described.

The next assay concerns hMT2. Nature of the assay: 2-[125I]-iodomelatonin competition binding, CHO cell membranes. Conditions: in 2-[125I]-iodomelatonin binding assays.

Structures are written as SMILES.

Procedure for hMT2: For receptor binding studies, '7447 was dissolved in 50% DMSO/50% ethanol for 13 mM stock solution, diluted 1/10 in 100% ethanol then 1/10 again in 50% ethanol/50% Tris-HCl buffer. Both '3384 and '4226 were dissolved in 100% ethanol for 13 mM stock solutions and then diluted 1/10 in 50% ethanol/50% Tris-HCl buffer. Further dilutions were done in Tris-HCl buffer.
Assays were incubated for 1 hour at 25° C. Bound radioligand was separated from freeby rapidvacuum filtration using glass microfiber filters (Whatman, Krackeler Scientific, Inc., Albany N.Y., USA) saturated in 0.5% polyethylenimine solution.
Affinity shifts or lack thereof with G protein inactivation indicate apparent efficacy (Lefkowitz, R. J. et al., J Biol Chem 251, 4686-4692, 1976) as ligands are classified as agonists (ΔpKi% MLT>20%), antagonists (ΔpKi% MLT<20%, >−20%), or inverse agonists (ΔpKi% MLT<−20%) accordingly.

Turning to `COc1ccc(Br)c(CNc2cccnc2)c1` [ZINC128734226], the “off-target agonist activity on 5HT2c” value on 5HT2c is on record as “did have some activity on 5HT2c”. For the same molecule, the MT2/MT1 selectivity with hMT2 is reported as 54.
